The species named for data set [1] is Rattus norvegicus. Put plainly: Compound was tested for percentage inhibition of isometric force in response to a test compound in isolated rat bladder strips pre-contracted with carbachol at a concentration of 20 uM. The format is functional.
The target of data set [2] is Calcium-activated potassium channel subunit alpha-1 KCNMA1 (Mus musculus) (UniProt Q08460). Put plainly: Compound was tested for its effect on maxi-K-mediated outward current in Xenopus laevis oocytes expressing the cloned maxi-K channel mslo at a concentration of 20 uM. Conditions: oocyte.
Data set [3] is filed under the species Rattus norvegicus. The experiment in a line: Compound was tested for percentage inhibition of isometric force in response to a test compound in isolated rat bladder strips pre-contracted with carbachol at a concentration of 3 uM. The format is functional.
The target in data set [4] is Calcium-activated potassium channel subunit alpha-1 KCNMA1 (Homo sapiens) (UniProt Q12791). Put plainly: Compound was tested for its effect on maxi-K-mediated outward current in Xenopus laevis oocytes expressing the cloned maxi-K channel hslo at a concentration of 1 uM. The following applies: oocyte.
For data set [5], the target named is Calcium-activated potassium channel subunit alpha-1 KCNMA1 (Mus musculus) (UniProt Q08460). The experiment in a line: Compound was tested for its effect on maxi-K-mediated outward current in Xenopus laevis oocytes expressing the cloned maxi-K channel mslo at a concentration of 10 uM. Conditions: oocyte.

Drawing on ChEMBL document CHEMBL1136065, “The synthesis and structure-activity relationships of 1,3-diaryl 1,2,4-(4H)-triazol-5-ones: a new class of calcium-dependent, large conductance, potassium (maxi-K) channel opener targeted for urge urinary incontinence” (Bioorg Med Chem Lett, 2002), this text covers inhibition and Increase for eight molecules.

SMILES strings stand for the structures.

Calcium-activated potassium channel subunit alpha-1 KCNMA1 (Mus musculus), sequence (Q08460 whole entry, looked up): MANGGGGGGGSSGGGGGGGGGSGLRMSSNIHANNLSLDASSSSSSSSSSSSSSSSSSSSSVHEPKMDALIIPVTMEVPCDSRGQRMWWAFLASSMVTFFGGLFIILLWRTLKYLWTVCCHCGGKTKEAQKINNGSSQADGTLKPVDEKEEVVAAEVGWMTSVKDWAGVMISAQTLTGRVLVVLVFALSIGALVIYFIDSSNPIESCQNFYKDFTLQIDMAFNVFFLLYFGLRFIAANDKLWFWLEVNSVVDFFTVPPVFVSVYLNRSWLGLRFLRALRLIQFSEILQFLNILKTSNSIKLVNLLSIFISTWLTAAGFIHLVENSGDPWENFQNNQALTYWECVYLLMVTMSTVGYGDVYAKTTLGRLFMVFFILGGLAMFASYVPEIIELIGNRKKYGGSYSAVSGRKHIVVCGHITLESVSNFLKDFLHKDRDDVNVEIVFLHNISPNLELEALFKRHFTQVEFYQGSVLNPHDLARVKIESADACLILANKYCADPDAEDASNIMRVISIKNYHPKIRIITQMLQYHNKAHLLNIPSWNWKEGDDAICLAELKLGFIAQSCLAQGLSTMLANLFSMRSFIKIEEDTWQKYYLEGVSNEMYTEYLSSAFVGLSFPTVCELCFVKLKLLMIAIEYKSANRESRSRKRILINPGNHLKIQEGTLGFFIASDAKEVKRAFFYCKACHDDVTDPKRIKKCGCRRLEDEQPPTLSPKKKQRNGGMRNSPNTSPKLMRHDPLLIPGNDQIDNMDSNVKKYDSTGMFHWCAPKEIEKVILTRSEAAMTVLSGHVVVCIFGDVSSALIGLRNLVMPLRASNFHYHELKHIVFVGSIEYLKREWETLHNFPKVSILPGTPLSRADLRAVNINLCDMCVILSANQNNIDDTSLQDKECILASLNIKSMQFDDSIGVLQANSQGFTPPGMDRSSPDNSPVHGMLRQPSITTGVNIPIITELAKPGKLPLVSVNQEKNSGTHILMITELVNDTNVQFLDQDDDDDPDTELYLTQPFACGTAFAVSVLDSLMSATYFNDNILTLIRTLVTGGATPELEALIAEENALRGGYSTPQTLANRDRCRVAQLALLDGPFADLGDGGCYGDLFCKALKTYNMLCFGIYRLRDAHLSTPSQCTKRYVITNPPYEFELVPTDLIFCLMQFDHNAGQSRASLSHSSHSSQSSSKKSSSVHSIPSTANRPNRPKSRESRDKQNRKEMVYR
Calcium-activated potassium channel subunit alpha-1 KCNMA1 (Homo sapiens), sequence (Q12791 whole entry, looked up): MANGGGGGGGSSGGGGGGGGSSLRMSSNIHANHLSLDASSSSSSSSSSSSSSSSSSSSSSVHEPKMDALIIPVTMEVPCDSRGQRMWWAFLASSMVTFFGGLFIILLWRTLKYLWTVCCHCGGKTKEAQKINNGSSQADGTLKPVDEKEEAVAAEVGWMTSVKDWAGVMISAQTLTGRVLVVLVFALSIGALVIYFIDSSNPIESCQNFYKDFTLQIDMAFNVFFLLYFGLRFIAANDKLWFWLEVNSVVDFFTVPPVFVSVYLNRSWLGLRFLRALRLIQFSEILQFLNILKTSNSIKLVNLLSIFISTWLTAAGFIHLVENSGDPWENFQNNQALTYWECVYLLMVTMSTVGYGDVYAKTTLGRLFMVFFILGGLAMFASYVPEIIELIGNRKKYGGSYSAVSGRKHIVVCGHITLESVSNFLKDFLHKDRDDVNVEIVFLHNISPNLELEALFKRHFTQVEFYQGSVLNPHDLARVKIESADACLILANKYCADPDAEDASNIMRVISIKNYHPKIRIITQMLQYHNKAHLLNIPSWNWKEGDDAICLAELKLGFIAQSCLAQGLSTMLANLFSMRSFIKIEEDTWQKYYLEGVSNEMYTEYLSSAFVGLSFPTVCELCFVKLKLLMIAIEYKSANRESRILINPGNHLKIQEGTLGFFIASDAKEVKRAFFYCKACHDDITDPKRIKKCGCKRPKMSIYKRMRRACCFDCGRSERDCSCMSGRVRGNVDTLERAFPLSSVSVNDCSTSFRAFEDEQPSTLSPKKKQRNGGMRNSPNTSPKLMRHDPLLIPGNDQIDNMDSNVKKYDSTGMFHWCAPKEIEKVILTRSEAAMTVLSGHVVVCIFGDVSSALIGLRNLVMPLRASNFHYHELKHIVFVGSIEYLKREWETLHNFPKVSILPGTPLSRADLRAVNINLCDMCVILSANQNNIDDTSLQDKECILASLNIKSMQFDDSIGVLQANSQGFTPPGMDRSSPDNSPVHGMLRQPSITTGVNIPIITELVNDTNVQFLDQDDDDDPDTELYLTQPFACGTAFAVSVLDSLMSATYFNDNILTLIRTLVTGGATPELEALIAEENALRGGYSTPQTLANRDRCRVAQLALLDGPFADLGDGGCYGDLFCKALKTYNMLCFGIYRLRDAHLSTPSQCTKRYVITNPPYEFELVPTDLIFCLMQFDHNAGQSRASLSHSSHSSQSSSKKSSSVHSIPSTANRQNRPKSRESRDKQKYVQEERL

As a reminder, the inhibition is the drop in the measured response relative to a control, in per cent. As for `O=c1[nH]c2cc(C(F)(F)F)ccc2n1-c1cc(Cl)ccc1O`, 20 µM produced 8% inhibition in the data set listed under Rattus norvegicus [1]. In addition, the Increase in data set [2] came out at 131.8%.

`Oc1ccc(Cl)cc1-n1nc(-c2cc(C(F)(F)F)cc(C(F)(F)F)c2)nc1O` returned an inhibition at 3 µM in the data set listed under Rattus norvegicus [3] of 15%. Further, in data set [2], the Increase is 154.2%.

Consider `Oc1ccc(Cl)cc1-n1nc(-c2ccccc2C(F)(F)F)nc1O`, for which the inhibition at 20 µM in the data set listed under Rattus norvegicus [1] is 90%. Besides, in the data set filed under Rattus norvegicus [3], testing at 3 µM gave an inhibition of 34%. Further, the Increase in data set [2] turned out to be 117.1%.

Molecule `Oc1ccc(Cl)cc1-n1nc(-c2ccc(C(F)(F)F)cc2C(F)(F)F)nc1O` returned an inhibition at 20 µM in the data set filed under Rattus norvegicus [1] of 94%. In addition, at 3 µM the inhibition in the data set filed under Rattus norvegicus [3] was 46%. In addition, the Increase in data set [2] was found to be 175.5%.

`Oc1ccc(Cl)cc1-n1nc(-c2ccccc2)nc1O` came in with an inhibition at 20 µM in the data set listed under Rattus norvegicus [1] of 89.4%. In the data set listed under Rattus norvegicus [3], this molecule gave an inhibition at 3 µM of 35%. Besides, the Increase in data set [4] is reported as 91.4%.

In the case of `Oc1ccc(Cl)cc1-n1nc(-c2cccc(C(F)(F)F)c2)nc1O`, in the data set filed under Rattus norvegicus [3], the inhibition at 3 µM turned out to be 42%. Besides, the Increase in data set [5] is recorded as 161.5%.

As to `Oc1ccc(Cl)cc1-n1nc(-c2ccc(C(F)(F)F)c(Cl)c2)nc1O`, the inhibition at 3 µM in the data set filed under Rattus norvegicus [3] amounted to 5%. Further, the Increase in data set [2] was 198.5%.

For `O=c1[nH]c(-c2ccc(C(F)(F)F)cc2)nn1-c1cc(Cl)ccc1O`, in the data set listed under Rattus norvegicus [1], the inhibition at 20 µM came out at 87%. The molecule also registered an inhibition at 3 µM in the data set listed under Rattus norvegicus [3] of 22%. Moreover, the Increase in data set [2] is on record as 196.8%.
